The text below walks through data of ChEMBL document CHEMBL5653628, “Selective JAK3 Inhibitors with a Covalent Reversible Binding Mode Targeting a New Induced Fit Binding Pocket” (Cell Chem Biol, 2016).

Experiment [1] concerns the target T1, Tyrosine-protein kinase JAK3 (Homo sapiens, UniProt P52333).
T1 sequence (P52333 whole entry): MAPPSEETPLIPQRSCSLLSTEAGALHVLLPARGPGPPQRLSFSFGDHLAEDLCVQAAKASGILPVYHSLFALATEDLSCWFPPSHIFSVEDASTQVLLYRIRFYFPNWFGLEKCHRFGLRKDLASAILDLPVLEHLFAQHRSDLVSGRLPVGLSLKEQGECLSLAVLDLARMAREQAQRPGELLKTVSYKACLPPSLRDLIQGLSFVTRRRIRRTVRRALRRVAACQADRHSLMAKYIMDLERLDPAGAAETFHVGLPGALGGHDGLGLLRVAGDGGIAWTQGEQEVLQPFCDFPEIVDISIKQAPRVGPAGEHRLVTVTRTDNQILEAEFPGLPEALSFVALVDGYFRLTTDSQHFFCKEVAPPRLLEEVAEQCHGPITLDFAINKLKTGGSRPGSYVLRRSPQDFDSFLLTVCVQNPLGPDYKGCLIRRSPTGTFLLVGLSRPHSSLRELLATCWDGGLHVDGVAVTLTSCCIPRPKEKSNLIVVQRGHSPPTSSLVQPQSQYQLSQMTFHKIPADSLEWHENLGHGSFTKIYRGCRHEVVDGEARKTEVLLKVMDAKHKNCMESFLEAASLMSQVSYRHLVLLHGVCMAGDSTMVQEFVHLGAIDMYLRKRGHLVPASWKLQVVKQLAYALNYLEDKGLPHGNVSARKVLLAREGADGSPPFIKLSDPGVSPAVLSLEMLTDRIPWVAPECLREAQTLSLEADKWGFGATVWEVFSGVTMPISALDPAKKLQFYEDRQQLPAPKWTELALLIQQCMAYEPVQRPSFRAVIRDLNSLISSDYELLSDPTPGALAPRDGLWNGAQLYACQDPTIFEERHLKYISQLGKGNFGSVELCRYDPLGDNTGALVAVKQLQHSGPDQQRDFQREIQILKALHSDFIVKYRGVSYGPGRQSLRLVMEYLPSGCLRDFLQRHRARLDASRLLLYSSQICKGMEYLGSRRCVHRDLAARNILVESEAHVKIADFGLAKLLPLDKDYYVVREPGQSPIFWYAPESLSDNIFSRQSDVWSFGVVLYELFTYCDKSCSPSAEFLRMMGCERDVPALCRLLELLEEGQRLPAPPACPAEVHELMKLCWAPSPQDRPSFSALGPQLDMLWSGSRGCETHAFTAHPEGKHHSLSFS
Description: Inhibition of JAK3 (unknown origin) in presence of ATP by radiometric assay

Another experiment concerns the target Protein kinase C (PKC). Nature of the experiment: Inhibition of PKC (unknown origin). Type of experiment: protein assay, Homo sapiens.
Experiment [2] concerns the target Glycogen synthase kinase-3 beta (Homo sapiens, UniProt P49841). The experiment can be described thus: Inhibition of GSK3beta (unknown origin).
The species named for another experiment is Homo sapiens. The experiment can be described thus: Inhibition of AMPK (unknown origin) at 1 uM relative to control.
Experiment [3] has as its target Tyrosine-protein kinase Blk (Homo sapiens) (UniProt P51451). The following applies: dose 100.0 nM.
Description: Inhibition of BLK (unknown origin) at 100 nM relative to control
Experiment [4] deals with Epidermal growth factor receptor (Homo sapiens), P00533 [UNDEFINED MUTATION]. As to conditions: dose 100.0 nM.
Chain of Epidermal growth factor receptor (Homo sapiens), P00533 [UNDEFINED MUTATION] (P00533 whole entry, looked up, change not shown): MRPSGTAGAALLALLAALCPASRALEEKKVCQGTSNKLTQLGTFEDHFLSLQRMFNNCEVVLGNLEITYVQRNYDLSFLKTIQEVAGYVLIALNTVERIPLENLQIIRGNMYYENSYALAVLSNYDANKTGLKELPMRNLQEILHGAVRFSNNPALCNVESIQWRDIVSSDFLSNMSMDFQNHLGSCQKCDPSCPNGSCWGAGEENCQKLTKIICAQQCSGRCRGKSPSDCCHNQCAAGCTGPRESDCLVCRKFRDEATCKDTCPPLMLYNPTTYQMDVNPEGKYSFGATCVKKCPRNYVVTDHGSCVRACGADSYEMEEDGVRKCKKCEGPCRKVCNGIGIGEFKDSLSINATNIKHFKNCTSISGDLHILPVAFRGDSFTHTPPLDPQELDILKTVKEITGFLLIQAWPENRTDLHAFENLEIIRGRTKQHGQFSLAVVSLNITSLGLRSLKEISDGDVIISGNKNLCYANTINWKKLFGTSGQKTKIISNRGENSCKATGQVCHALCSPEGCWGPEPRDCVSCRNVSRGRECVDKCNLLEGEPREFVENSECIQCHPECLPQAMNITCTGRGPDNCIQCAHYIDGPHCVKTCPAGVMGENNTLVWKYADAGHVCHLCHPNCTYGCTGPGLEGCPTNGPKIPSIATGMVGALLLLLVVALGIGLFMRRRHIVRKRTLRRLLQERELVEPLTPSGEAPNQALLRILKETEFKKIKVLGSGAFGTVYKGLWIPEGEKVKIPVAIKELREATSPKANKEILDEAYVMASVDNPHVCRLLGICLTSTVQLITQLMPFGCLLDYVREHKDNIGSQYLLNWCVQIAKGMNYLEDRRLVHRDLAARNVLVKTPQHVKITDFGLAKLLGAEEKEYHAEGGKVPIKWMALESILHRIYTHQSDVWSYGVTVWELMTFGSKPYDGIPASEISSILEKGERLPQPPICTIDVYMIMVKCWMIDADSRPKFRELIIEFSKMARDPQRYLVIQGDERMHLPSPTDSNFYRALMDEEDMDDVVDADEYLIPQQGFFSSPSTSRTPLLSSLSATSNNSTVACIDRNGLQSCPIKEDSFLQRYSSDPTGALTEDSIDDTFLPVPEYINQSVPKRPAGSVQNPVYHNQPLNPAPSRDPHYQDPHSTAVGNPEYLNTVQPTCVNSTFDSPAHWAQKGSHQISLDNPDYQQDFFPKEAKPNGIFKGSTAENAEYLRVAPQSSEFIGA
Description: Inhibition of EGFR d747-752/P753S double mutant (unknown origin) at 100 nM relative to control
The target in experiment [5] is Tyrosine-protein kinase ITK/TSK (Homo sapiens) (UniProt Q08881). As to conditions: dose 100.0 nM.
Description: Inhibition of ITK (unknown origin) at 100 nM relative to control
The target of experiment [6] is Tyrosine-protein kinase JAK2 (Homo sapiens) (UniProt O60674). The following applies: dose 100.0 nM.
Description: Inhibition of JAK2 (unknown origin) at 100 nM relative to control
In experiment [7] the target is T2, Tyrosine-protein kinase JAK3 (Homo sapiens) (UniProt P52333).
T2 sequence (whole entry): T1 sequence (P52333 whole entry)
The following applies: dose 100.0 nM.
Description: Inhibition of JAK3 (unknown origin) at 100 nM relative to control

For experiment [8], the system named is Leucine-rich repeat serine/threonine-protein kinase 2 (Homo sapiens), Q5S007 [G2019S]. As to conditions: dose 100.0 nM.
The subject of experiment [9] is Leucine-rich repeat serine/threonine-protein kinase 2 (Homo sapiens), Q5S007 [I2020T]. The following applies: dose 100.0 nM.
In experiment [10] the test system is Leucine-rich repeat serine/threonine-protein kinase 2 (Homo sapiens), Q5S007 [R1441C]. As to conditions: dose 100.0 nM.
Experiment [11] deals with Leucine-rich repeat serine/threonine-protein kinase 2 (Homo sapiens) (UniProt Q5S007). As to conditions: dose 100.0 nM.
Description: Inhibition of wild-type LRRK2 (unknown origin) at 100 nM relative to control
In experiment [12] the target is Mitogen-activated protein kinase kinase kinase 11 (Homo sapiens) (UniProt Q16584). As to conditions: dose 100.0 nM.
Description: Inhibition of MAP3K11 (unknown origin) at 100 nM relative to control
Experiment [13] addresses Mitogen-activated protein kinase kinase kinase kinase 2 (Homo sapiens) (UniProt Q12851). As to conditions: dose 100.0 nM.
Description: Inhibition of MAP4K2 (unknown origin) at 100 nM relative to control
Experiment [14] has as its target MAP kinase-activated protein kinase 2 (Homo sapiens) (UniProt P49137). The following applies: dose 100.0 nM.
Description: Inhibition of MAPKAPK2 (unknown origin) at 100 nM relative to control
In experiment [15] the target is MAP kinase-activated protein kinase 5 (Homo sapiens) (UniProt Q8IW41). As to conditions: dose 100.0 nM.
Chain of MAP kinase-activated protein kinase 5 (Homo sapiens) (Q8IW41 whole entry): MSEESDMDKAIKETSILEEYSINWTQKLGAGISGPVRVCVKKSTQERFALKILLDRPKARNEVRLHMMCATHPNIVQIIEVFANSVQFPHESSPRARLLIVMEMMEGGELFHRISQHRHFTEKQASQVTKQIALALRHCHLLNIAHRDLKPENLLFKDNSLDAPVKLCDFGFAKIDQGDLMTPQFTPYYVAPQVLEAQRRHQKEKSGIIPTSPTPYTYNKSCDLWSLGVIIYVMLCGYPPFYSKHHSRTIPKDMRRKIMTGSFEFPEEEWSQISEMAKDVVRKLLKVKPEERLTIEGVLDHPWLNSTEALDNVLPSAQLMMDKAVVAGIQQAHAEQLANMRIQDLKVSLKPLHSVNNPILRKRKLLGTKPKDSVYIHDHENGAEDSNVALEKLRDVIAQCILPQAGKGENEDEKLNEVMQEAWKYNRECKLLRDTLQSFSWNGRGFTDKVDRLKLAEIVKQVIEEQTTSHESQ
Description: Inhibition of MAPKAPK5 (unknown origin) at 100 nM relative to control
In experiment [16] the target is Misshapen-like kinase 1 (Homo sapiens) (UniProt Q8N4C8). As to conditions: dose 100.0 nM.
Description: Inhibition of MINK1 (unknown origin) at 100 nM relative to control
Experiment [17] deals with Muscle, skeletal receptor tyrosine-protein kinase (Homo sapiens) (UniProt O15146). The following applies: dose 100.0 nM.
Description: Inhibition of MUSK (unknown origin) at 100 nM relative to control
The target of experiment [18] is Protein kinase C beta type (Homo sapiens) (UniProt P05771). The following applies: dose 100.0 nM.
Description: Inhibition of PKC-beta2 (unknown origin) at 100 nM relative to control
The target in experiment [19] is Protein kinase C delta type (Homo sapiens) (UniProt Q05655). As to conditions: dose 100.0 nM.
Description: Inhibition of PKC-delta (unknown origin) at 100 nM relative to control
Experiment [20] has as its target Serine/threonine-protein kinase N2 (Homo sapiens) (UniProt Q16513). The following applies: dose 100.0 nM.
Description: Inhibition of PRK2 (unknown origin) at 100 nM relative to control
Experiment [21] deals with Rho-associated protein kinase 1 (Homo sapiens) (UniProt Q13464). As to conditions: dose 100.0 nM.
Description: Inhibition of ROCK1 (unknown origin) at 100 nM relative to control
Experiment [22] addresses Ribosomal protein S6 kinase alpha-2 (Homo sapiens) (UniProt Q15349). As to conditions: dose 100.0 nM.
Description: Inhibition of RPS6KA2 (unknown origin) at 100 nM relative to control
In experiment [23] the target is Ribosomal protein S6 kinase alpha-6 (Homo sapiens) (UniProt Q9UK32). The following applies: dose 100.0 nM.
Description: Inhibition of RPS6KA6 (unknown origin) at 100 nM relative to control
Experiment [24] concerns the target Non-receptor tyrosine-protein kinase TNK1 (Homo sapiens) (UniProt Q13470). As to conditions: dose 100.0 nM.
Description: Inhibition of TNK1 (unknown origin) at 100 nM relative to control
In experiment [25] the target is Vascular endothelial growth factor receptor 2 (Homo sapiens, UniProt P35968). The following applies: dose 100.0 nM.
Description: Inhibition of VEGFR2 (unknown origin) at 100 nM relative to control
Experiment [26] deals with Epidermal growth factor receptor (Homo sapiens), P00533 [UNDEFINED MUTATION]. As to conditions: dose 500.0 nM.
Description: Inhibition of EGFR d747-752/P753S double mutant (unknown origin) at 500 nM relative to control
Experiment [27] addresses T2, Tyrosine-protein kinase JAK3 (Homo sapiens). As to conditions: dose 500.0 nM.
Description: Inhibition of JAK3 (unknown origin) at 500 nM relative to control
The subject of experiment [28] is CD4+ve Th. As to conditions: Homo sapiens, dose 50-100 nM, time 1.5 hrs.
The subject of experiment [29] is CD4+ve Th. The following applies: Homo sapiens, dose <= 1000.0 nM, time 1.5 hrs.
The subject of experiment [30] is CD4+ve Th. As to conditions: Homo sapiens, dose <= 1000.0 nM, time 1.5 hrs. The source holds these as a separate data set.
A short description of experiment [31]: cells. As to conditions: Homo sapiens, CD4+ve Th, 1.5 h, read-out: INH.
The nature of experiment [32]: cells. The following applies: Homo sapiens, CD4+ve Th, 1.5 h, read-out: INH. This is another data set of the same source.
Experiment [33] has as its target T3, Tyrosine-protein kinase Fyn (Homo sapiens, UniProt P06241). The experiment can be described thus: Inhibition of FYN (unknown origin) by trFRET binding assay.
Target sequence in this assay (P06241 whole entry): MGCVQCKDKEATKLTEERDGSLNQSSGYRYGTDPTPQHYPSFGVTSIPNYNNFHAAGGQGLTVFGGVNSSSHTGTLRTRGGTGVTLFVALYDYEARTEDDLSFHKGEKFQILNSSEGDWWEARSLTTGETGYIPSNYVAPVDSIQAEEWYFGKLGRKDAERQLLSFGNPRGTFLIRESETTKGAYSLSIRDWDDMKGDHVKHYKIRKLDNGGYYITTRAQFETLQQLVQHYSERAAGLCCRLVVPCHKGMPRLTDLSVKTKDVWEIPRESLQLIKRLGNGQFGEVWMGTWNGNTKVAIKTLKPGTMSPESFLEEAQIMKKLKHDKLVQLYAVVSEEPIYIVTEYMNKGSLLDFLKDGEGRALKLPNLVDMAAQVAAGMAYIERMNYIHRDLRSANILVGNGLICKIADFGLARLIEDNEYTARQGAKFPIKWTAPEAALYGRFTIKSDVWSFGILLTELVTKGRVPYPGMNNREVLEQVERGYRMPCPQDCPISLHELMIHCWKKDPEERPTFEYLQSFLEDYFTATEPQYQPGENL
Experiment [34] concerns the target Dual specificity protein kinase CLK3 (Homo sapiens) (UniProt P49761). The following applies: dose 500.0 nM.
Description: Inhibition of CLK3 (unknown origin) at 500 nM relative to control
Experiment [35] deals with Tyrosine-protein kinase CSK (Homo sapiens) (UniProt P41240). As to conditions: dose 500.0 nM.
Description: Inhibition of CSK (unknown origin) at 500 nM relative to control
Experiment [36] addresses Receptor tyrosine-protein kinase erbB-4 (Homo sapiens) (UniProt Q15303). The following applies: dose 500.0 nM.
Description: Inhibition of ERBB4 (unknown origin) at 500 nM relative to control
Experiment [37] deals with Fibroblast growth factor receptor 3 (Homo sapiens), P22607 [G697C]. As to conditions: dose 500.0 nM.
Experiment [38] addresses T3, Tyrosine-protein kinase Fyn. As to conditions: dose 500.0 nM.
Description: Inhibition of wild-type FYN (unknown origin) at 500 nM relative to control
Experiment [39] deals with G protein-coupled receptor kinase 6 (Homo sapiens) (UniProt P43250). As to conditions: dose 500.0 nM.
Chain of G protein-coupled receptor kinase 6 (Homo sapiens) (P43250 whole entry, looked up): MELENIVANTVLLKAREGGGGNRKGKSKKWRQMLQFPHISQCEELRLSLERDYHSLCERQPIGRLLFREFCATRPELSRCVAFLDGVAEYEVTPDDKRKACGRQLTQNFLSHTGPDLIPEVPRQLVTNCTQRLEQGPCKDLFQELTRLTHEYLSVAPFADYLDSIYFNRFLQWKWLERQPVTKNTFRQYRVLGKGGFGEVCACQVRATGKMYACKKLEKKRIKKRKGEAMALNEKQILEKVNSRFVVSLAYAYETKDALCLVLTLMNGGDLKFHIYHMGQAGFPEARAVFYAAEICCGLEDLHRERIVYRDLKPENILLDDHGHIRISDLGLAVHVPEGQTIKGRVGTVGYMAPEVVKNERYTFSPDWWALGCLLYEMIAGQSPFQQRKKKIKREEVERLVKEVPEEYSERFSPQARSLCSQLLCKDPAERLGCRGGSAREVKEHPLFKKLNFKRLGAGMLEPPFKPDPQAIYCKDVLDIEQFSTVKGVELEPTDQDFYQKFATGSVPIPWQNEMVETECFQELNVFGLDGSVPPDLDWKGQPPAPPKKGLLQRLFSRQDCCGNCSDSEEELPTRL
Description: Inhibition of GRK6 (unknown origin) at 500 nM relative to control
The target of experiment [40] is Serine/threonine-protein kinase haspin (Homo sapiens) (UniProt Q8TF76). The following applies: dose 500.0 nM.
Description: Inhibition of GSG2 (unknown origin) at 500 nM relative to control
The target of experiment [41] is Homeodomain-interacting protein kinase 1 (Homo sapiens) (UniProt Q86Z02). The following applies: dose 500.0 nM.
Description: Inhibition of HIPK1 (unknown origin) at 500 nM relative to control
Experiment [42] has as its system Mast/stem cell growth factor receptor Kit (Homo sapiens), P10721 [V559D,V654A]. As to conditions: dose 500.0 nM.
In experiment [43] the target is MAP kinase-activated protein kinase 2 (Homo sapiens) (UniProt P49137). As to conditions: dose 500.0 nM.
Chain of MAP kinase-activated protein kinase 2 (Homo sapiens) (P49137 whole entry, looked up): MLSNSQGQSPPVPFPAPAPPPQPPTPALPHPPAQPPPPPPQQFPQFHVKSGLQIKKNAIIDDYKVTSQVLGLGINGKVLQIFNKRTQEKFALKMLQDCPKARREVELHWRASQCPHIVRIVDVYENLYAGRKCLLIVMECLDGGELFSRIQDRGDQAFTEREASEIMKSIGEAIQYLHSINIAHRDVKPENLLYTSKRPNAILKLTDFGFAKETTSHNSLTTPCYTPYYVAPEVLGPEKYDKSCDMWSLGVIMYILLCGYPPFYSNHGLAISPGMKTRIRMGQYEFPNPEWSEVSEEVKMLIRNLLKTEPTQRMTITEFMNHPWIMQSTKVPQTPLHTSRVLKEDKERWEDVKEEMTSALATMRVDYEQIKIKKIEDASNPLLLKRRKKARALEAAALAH
Description: Inhibition of MAPKAPK2 (unknown origin) at 500 nM relative to control
In experiment [44] the target is MAP kinase-activated protein kinase 3 (Homo sapiens) (UniProt Q16644). As to conditions: dose 500.0 nM.
Description: Inhibition of MAPKAPK3 (unknown origin) at 500 nM relative to control
Experiment [45] addresses Hepatocyte growth factor-like protein (Homo sapiens) (UniProt P26927). The following applies: dose 500.0 nM.
Description: Inhibition of MST1 (unknown origin) at 500 nM relative to control
Experiment [46] deals with Serine/threonine-protein kinase Nek6 (Homo sapiens) (UniProt Q9HC98). As to conditions: dose 500.0 nM.
Description: Inhibition of NEK6 (unknown origin) at 500 nM relative to control
In experiment [47] the target is Mitogen-activated protein kinase kinase kinase kinase 4 (Homo sapiens) (UniProt O95819). As to conditions: dose 500.0 nM.
Description: Inhibition of NIK (unknown origin) at 500 nM relative to control
Experiment [48] relates to NPM/ALK (Nucleophosmin/ALK tyrosine kinase receptor) (Homo sapiens), Q9UM73+P06748 [F1174L]. As to conditions: dose 500.0 nM.
Description: Inhibition of NPM1ALK F1174L mutant (unknown origin) at 500 nM relative to control
Experiment [49] addresses Mitogen-activated protein kinase 14 (Homo sapiens) (UniProt Q16539). As to conditions: dose 500.0 nM.
Description: Inhibition of p38-alpha (unknown origin) at 500 nM relative to control
Experiment [50] addresses Serine/threonine-protein kinase D1 (Homo sapiens) (UniProt Q15139). The following applies: dose 500.0 nM.
Description: Inhibition of PKC-mu (unknown origin) at 500 nM relative to control
The target of experiment [51] is Macrophage-stimulating protein receptor (Homo sapiens) (UniProt Q04912). As to conditions: dose 500.0 nM.
Description: Inhibition of RON (unknown origin) at 500 nM relative to control
Experiment [52] deals with STE20/SPS1-related proline-alanine-rich protein kinase (Homo sapiens) (UniProt Q9UEW8). As to conditions: dose 500.0 nM.
Description: Inhibition of STK39 (unknown origin) at 500 nM relative to control
The target in experiment [53] is Phosphatidylinositol 3-kinase catalytic subunit type 3 (Homo sapiens) (UniProt Q8NEB9). As to conditions: dose 500.0 nM.
Chain of Phosphatidylinositol 3-kinase catalytic subunit type 3 (Homo sapiens) (Q8NEB9 whole entry, canonical isoform): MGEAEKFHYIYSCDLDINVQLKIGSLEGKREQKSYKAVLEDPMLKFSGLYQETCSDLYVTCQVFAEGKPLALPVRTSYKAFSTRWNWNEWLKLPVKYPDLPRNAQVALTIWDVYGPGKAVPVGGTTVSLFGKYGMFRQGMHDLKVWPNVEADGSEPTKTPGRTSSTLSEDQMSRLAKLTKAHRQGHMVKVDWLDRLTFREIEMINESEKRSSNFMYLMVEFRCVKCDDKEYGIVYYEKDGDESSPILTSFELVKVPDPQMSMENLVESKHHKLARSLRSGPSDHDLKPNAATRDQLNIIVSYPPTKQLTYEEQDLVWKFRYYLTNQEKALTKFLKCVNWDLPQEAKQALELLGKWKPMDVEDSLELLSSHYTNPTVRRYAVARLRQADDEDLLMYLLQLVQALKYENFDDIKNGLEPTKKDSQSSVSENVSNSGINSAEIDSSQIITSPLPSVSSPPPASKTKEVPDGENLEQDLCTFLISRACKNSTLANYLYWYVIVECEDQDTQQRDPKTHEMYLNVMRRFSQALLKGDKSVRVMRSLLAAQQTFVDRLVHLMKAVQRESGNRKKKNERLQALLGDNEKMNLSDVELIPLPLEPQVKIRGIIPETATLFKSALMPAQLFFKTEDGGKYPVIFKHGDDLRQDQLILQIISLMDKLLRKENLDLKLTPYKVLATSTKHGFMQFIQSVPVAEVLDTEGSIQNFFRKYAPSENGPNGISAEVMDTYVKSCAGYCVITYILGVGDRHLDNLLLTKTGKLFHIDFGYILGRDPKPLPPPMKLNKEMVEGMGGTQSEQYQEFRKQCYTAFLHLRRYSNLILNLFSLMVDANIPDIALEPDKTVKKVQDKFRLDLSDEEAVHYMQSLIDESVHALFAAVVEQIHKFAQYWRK
Description: Inhibition of PIK3C3 (unknown origin) at 500 nM relative to control
The target of experiment [54] is Phosphatidylinositol 4,5-bisphosphate 3-kinase catalytic subunit gamma isoform (Homo sapiens) (UniProt P48736). As to conditions: dose 500.0 nM.
Description: Inhibition of PIK3CG (unknown origin) at 500 nM relative to control
Experiment [55] deals with T2, Tyrosine-protein kinase JAK3 (Homo sapiens). As to conditions: HeLa, dose 100.0 nM, time 2.0 hrs.
The target is the same in experiment [56]. As to conditions: HeLa, dose 100.0 nM, time 1.0 hrs.

Activity calls are given as the source filed them. The calls are words filed in the database; no cut-off is given here.

Chain of Tyrosine-protein kinase Blk (Homo sapiens) (P51451 2-505 limits assumed): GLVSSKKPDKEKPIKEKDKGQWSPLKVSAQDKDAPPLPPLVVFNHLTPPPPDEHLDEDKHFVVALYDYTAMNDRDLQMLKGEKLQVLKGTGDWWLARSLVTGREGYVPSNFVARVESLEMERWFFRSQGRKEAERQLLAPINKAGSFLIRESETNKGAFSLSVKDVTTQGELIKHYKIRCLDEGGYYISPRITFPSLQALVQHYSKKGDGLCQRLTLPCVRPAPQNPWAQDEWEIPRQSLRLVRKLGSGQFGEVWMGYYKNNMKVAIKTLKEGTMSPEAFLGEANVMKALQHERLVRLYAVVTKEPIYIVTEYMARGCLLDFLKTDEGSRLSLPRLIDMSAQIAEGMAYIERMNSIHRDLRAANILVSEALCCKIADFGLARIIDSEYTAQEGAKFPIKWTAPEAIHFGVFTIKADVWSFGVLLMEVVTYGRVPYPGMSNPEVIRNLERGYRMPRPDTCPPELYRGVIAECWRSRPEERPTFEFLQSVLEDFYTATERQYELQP
Chain of Glycogen synthase kinase-3 beta (P49841 whole entry): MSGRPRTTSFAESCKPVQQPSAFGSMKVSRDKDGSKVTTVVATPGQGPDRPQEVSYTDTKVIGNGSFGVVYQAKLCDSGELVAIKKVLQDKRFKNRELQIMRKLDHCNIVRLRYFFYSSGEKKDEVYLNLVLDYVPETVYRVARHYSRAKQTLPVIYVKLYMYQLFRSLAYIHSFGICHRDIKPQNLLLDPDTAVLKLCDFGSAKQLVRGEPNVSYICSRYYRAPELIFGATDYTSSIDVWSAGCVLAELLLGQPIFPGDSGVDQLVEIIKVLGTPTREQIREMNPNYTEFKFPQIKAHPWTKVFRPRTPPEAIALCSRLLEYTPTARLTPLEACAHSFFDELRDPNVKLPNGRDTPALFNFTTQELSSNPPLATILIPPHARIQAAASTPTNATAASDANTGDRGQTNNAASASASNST

With `Cn1c(=O)n([C@@H]2CC[C@@H](O)c3ccccc32)c2cc(-n3cnc4ccc(C#N)cc43)ccc21`, it took 0.9 nM to reach half-maximal inhibition in experiment [1] (IC50).
Consider `CC(C)(O)C(=O)N1CCN(c2ccc(C(F)(F)F)c(C3=C(c4c[nH]c5ccccc45)C(=O)NC3=O)c2)CC1`, for which the IC50 (at Protein kinase C (PKC); in experiment [2]) was below 1000 nM each time.
For `CC(C)(C)[C@@H](NC(=O)c1c[nH]c2ncc(C3CC3)nc12)C(=O)N1CC(C#N)C1`, the inhibition in the experiment listed under Homo sapiens was 67%.
`CC1CCCCC1n1c(-c2ccc(C=C(C#N)C(=O)N(C)C)o2)nc2cnc3[nH]ccc3c21` (mixture of isomers): the inhibition amounted to 57% in experiment [3]; 100% in experiment [4]; 52% in experiment [5]; 60% in experiment [6]; 3% in experiment [7]; 48% in experiment [8]. Also, the inhibition in experiment [9] was determined as 40%; in experiment [10] it was 22%; in experiment [11] it was 34%; in experiment [12], 49%; in experiment [13], 54%; in [14] it was 60%. Also, the inhibition in experiment [15] was found to be 100%; in experiment [16], 100%; in experiment [17], 61%; in [18], 31%; in experiment [19], 60%; in [20] it was 48%. In addition, the inhibition is 61% in experiment [21]; 26% in experiment [22]; 40% in experiment [23]; 51% in [24]; 60% in experiment [25]; 100% in experiment [26]. In addition, in experiment [27], the inhibition worked out at 3%. Besides, the inhibition entry in the experiment with CD4+ve Th [28] is “Active”. Moreover, the inhibition result with CD4+ve Th [29] and in the experiment on CD4+ve Th [30] was “inactive” each time. Moreover, the inhibition at 0.3 µM in the experiment “cells [31]” and in the experiment “cells [32]” was 100% in each case.
In the case of `CN(C)C/C=C/C(=O)Nc1nc2cnc3[nH]ccc3c2n1C`, the midpoint of inhibition in experiment [1], the IC50, lay at 7 nM.
With `CN(C)C(=O)C(C#N)=Cc1ccc(-c2nc3cnc4[nH]ccc4c3n2C2CCCCC2)o1` (mixture of isomers), the IC50 – broadly, the concentration needed to halve the response being measured – in [33] stood at 660 nM. Also, the inhibition in experiment [34] was determined as 65%; in experiment [35], 100%; in [36] it was 100%; in experiment [37], 135%; in experiment [38] it was 135%; in experiment [39] it was 62%. Further, the inhibition in experiment [40] was determined as 133%; in experiment [41], 100%; in experiment [27], 11%; in experiment [42] it was 142%; in experiment [43] it was 53%; in experiment [44], 100%. Besides, the inhibition in [45], in experiment [46], in experiment [47], in experiment [48], in experiment [49] and in experiment [50] was 100% each time. Further, the inhibition in [51] turned out to be 145%; in experiment [52] it was 148%; in experiment [53], 100%; in [54] it was 141%. In addition, the inhibition entry (in experiment [55]; in experiment [56]; with CD4+ve Th [28]) was “Active” in each case. In addition, the inhibition entry in the experiment on CD4+ve Th [29] and in the experiment on CD4+ve Th [30] was “inactive” each time. Further, the inhibition at 0.3 µM in the experiment “cells [31]” and in the experiment “cells [32]” was 100% in each case.
